Measured values as given in patent US6867185B2 (Bristol-Myers Squibb Company, priority 2001, dated 2005).

How the values were obtained:
[1] = target: T1, HCV NS3/4A protease complex, BMS strain (genotype 1a) (Hepatitis C virus genotype 1a, UniProt P27958, C1454S/C1711G); assay: Recombinant HCV NS3/4A protease complex FRET peptide assay (BMS strain); format: biochemical; conditions: IC50, HCV NS3/4A protease FRET assay in vitro; IC50 ranges
T1 construct: recombinant HCV NS3/4A protease complex (amino'acids 1027 to 1711); inferred from the pET21b vector and Ni-NTA purification; made in house; host or cells: Escherichia coli BL21 (DE3), pET21b
Text: The purpose of this in vitro assay was to measure the inhibition of HCV NS3 protease complexes, derived from the BMS, H77C or J4L6S strains, as described below, by compounds of the present invention. This assay provides an indication of how effective compounds of the present invention would be in inhibiting HCV proteolytic activity.
Serum from an HCV-infected patient was obtained from Dr. T. Wright, San Francisco Hospital. An engineered full-length cDNA (compliment deoxyribonucleic acid) template of the HCV genome (BMS strain) was constructed from DNA fragments obtained by reverse transcription-PCR (RT-PCR) of serum RNA (ribonucleic acid) and using primers selected on the basis of homology between other genotype 1a strains. From the determination of the entire genome sequence, a genotype 1a was assigned to the HCV isolate according to the classification of Simmonds et al. (See P Simmonds, K A Rose, S Graham, S W Chan, F McOmish, B C Dow, E A Follett, P L Yap and H Marsden, J. Clin. Microbiol., 31 (6), 1493-1503 (1993)). […] The infectious clones, H77C (1a genotype) and J4L6S (1b genotype) were obtained from R. Purcell (N1H) and the sequences are published in Genbank (AAB67036, see Yanagi, M., Purcell, R. H., Emerson, S. U. and Bukh, J. Proc. Natl. Acad. Sci. U.S.A. 94 (16), 8738-8743 (1997); AF054247, see Yanagi, M., St Claire, M., Shapiro, M., Emerson, S. U., Purcell, R. H. and Bukh, J, Virology 244 (1), 161-172. (1998)).
The BMS, H77C and J4L6S strains were used for production of recombinant NS3/4A protease complexes. DNA encoding the recombinant HCV NS3/4A protease complex (amino'acids 1027 to 1711) for these strains were manipulated as described by P. Gallinari et al. (see Gallinari P, Paolini C, Brennan D, Nardi C, Steinkuhler C, De Francesco R. Biochemistry. 38 (17):5620-32, (1999)). Briefly, a three-lysine solubilizing tail was added at the 3′-end of the NS4A coding region. The cysteine in the P1 position of the NS4A-NS4B cleavage site (amino acid 1711) was changed to a glycine to avoid the proteolytic cleavage of the lysine tag. Furthermore, a cysteine to serine mutation was introduced by PCR at amino acid position 1454 to prevent the autolytic cleavage in the NS3 helicase domain. The variant DNA fragment was cloned in the pET21b bacterial expression vector (Novagen)and the NS3/4A complex was expressed in Escherichia. coli strain BL21 (DE3) (Invitrogen) following the protocol described by P. Gallinari et al. (see Gallinari P, Brennan D, Nardi C, Brunetti M, Tomei L, Steinkuhler C, De Francesco R., J. Virol. 72 (8):6758-69 (1998)) with modifications. Briefly, NS3/4A expression was induced with 0.5 mM Isopropyl β-D-1-thiogalactopyranoside (IPTG) for 22 hr at 20° C. A typical fermentation (10L) yielded approximately 80 g of wet cell paste. The cells were resuspended in lysis buffer (10 mL/g) consisting of 25 mM N-(2-Hydroxyethyl)Piperazine-N′-(2-Ethane Sulfonic acid) (HEPES), pH 7.5, 20% glycerol, 500 mM Sodium Chloride (NaCl), 0.5% Triton-X100, 1 ug/ml lysozyme, 5 mM Magnesium Chloride (MgCl2), 1 ug/ml Dnasel, 5 mM β-Mercaptoethanol (OME), Protease inhibitor-Ethylenediamine Tetraacetic acid (EDTA) free (Roche), homogenized and incubated for 20 mins at 4° C. The homogenate was sonicated and clarified by ultra-centrifugation at 235000 g for 1 hr at 4° C. Imidazole was added to the supernatant to a final concentration of 15 mM and the pH adjusted to 8.0. The crude protein extract was loaded on a Nickel-Nitrilotriacetic acid (Ni-NTA) column pre-equilibrated with buffer B (25 mM HEPES, pH 8.0, 20% glycerol, 500 mM NaCl, 0.5% Triton-X100, 15 mM imidazole, 5 mM βME). The sample was loaded at a flow rate of 1 mL/min. The column was washed with 15 column volumes of buffer C (same as buffer B except with 0.2% Triton-X100). The protein was eluted with 5 column volumes of buffer D (same as buffer C except with 200 mM Imidazole). […]

[2] = test system: HCV replicon in Huh7 cells; assay: HCV replicon cell-based assay (replicon FRET assay); set-up: species or system HCV strain 1B; conditions: Hepatitis C virus, Huh-7, HCV replicon cell assay; EC50 ranges
Text: An HCV replicon whole cell system was established as described by Lohmann V, Korner F, Koch J, Herian U, Theilmann L, Bartenschlager R., Science 285 (5424):110-3 (1999). This system enabled us to evaluate the effects of our HCV Protease compounds on HCV RNA replication. Briefly, using the HCV strain 1B sequence described in the Lohmann paper (Assession number:AJ238799), an HCV cDNA was generated encoding the 5′ internal ribosome entry site (IRES), the neomycin resistance gene, the EMCV (encephalomyocarditis viurs)-IRES and the HCV nonstructural proteins, NS3-NS5B, and 3′ non-translated region (NTR). In vitro transcripts of the cDNA were transfected into the human hepatoma cell line, Huh7. […] Resulting cell lines were characterized for positive and negative strand RNA production and protein production over time.
Huh7 cells, constitutively expressing the HCV replicon, were grown in Dulbecco's Modified Eagle Media (DMEM) containing 10% Fetal calf serum (FCS) and 1 mg/ml G418 (Gibco-BRL). Cells were seeded the night before (1.5×10^4 cells/well) in 96-well tissue-culture sterile plates. Compound and no compound controls were prepared in DMEM containing 4% FCS, 1:100 Penicillin/Streptomysin, 1:100 L-glutamine and 5% DMSO in the dilution plate (0.5% DMSO final concentration in the assay). Compound/DMSO mixes were added to the cells and incubated for 4 days at 37° C. After 4 days, plates were rinsed thoroughly with Phosphate-Buffered Saline (PBS) (3 times 150 μl). The cells were lysed with 25 μl of a lysis assay reagent containing the FRET peptide (RET S1, as described for the in vitro enzyme assay). The lysis assay reagent was made from 5× cell Luciferase cell culture lysis reagent(Promega #E153A) diluted to 1× with distilled water, NaCl added to 150 mM final, the FRET peptide diluted to 10 μM final from a 2 mM stock in 100% DMSO. The plate was then placed into the Cytofluor 4000 instrument which had been set to 340 nm excitation/490 emission, automatic mode for 21 cycles and the plate read in a kinetic mode. EC50 determinations were carried out as described for the IC50 determinations.

T1 sequence (P27958 1027-1711 C1454S/C1711G, one chain of several): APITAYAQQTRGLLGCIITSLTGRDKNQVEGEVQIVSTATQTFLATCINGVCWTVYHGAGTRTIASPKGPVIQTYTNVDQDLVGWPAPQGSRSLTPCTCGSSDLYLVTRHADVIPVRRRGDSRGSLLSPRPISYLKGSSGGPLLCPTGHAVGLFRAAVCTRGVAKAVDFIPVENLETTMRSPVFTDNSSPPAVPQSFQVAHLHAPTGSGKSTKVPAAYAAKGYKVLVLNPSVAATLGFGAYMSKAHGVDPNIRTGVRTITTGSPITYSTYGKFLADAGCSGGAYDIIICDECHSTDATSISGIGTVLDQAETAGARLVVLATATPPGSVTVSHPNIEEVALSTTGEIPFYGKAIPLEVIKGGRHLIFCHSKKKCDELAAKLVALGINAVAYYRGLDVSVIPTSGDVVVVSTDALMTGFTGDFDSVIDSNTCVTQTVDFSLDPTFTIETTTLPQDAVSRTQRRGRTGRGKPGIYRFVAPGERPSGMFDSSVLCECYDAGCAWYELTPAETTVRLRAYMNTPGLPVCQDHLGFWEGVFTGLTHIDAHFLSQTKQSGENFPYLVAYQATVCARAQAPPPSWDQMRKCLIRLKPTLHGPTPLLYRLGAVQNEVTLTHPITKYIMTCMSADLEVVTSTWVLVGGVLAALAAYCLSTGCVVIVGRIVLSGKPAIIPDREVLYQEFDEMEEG

SMILES | IC50 [1] [nM] | EC50 [2] [nM]
CC(C)(C)OC(=O)N[C@H]1CCCCC/C=C\[C@@H]2C[C@@]2(C(=O)NS(=O)(=O)C2CC2)NC(=O)[C@@H]2C[C@@H](Oc3ccnc4ccccc34)CN2C1=O [Compound 29, (1S,4R,6S,14S,18R)-7-cis-[4-Cyclopropanesulfonylaminocarbonyl-2,15-dioxo-18-(quinolin-4-yloxy)-3,16-diazatricyclo[14.3.0.0^4,6]nonadec-7-en-14-yl]carbamic acid tert-butyl ester] | < 50 | < 50
COc1ccc2c(O[C@@H]3C[C@H]4C(=O)N[C@]5(C(=O)NS(=O)(=O)C6CCC6)C[C@H]5/C=C\CCCC[C@H](NC(=O)OC(C)(C)C)C(=O)N4C3)cc(-c3ccccc3)nc2c1 [Compound 17, (1S,4R,6S,13S,17R)-7-cis-[4-Cyclobutanesulfonylaminocarbonyl-17-(7-methoxy-2-phenylquinolin-4-yloxy)-2,14-dioxo-3,15-diazatricyclo[13.3.0.0^4,6]octadec-7-en-13-yl]carbamic acid tert-butyl ester] | < 50 | < 500
COc1ccc2c(O[C@@H]3C[C@H]4C(=O)N[C@]5(C(=O)NS(=O)(=O)C6CC6)CC5/C=C\CCCC[C@H](NC(=O)OC(C)(C)C)C(=O)N4C3)cc(-c3ccccc3)nc2c1 (stereo partly drawn) [Compound 7, (1S,4R,65,13S,17R)-7-cis-[4-Cyclopropanesulfonylamino-carbonyl-17-(7-methoxy-2-phenylquinolin-4-yloxy)-2,14-dioxo-3,15-diazatricyclo[13.3.0.0^4,6]octadec-7-en-13-yl]carbamic acid tert-butyl ester] | < 50 | < 50
COc1ccc2c(O[C@@H]3C[C@H]4C(=O)N[C@]5(C(=O)NS(=O)(=O)C6CC6)CC5CCCCCCC[C@H](NC(=O)OC5CCOCC5)C(=O)N4C3)cc(-c3ccccc3)nc2c1 (stereo partly drawn) [Compound 23, (1S,4R,6R,14S,18R)-[4-Cyclopropanesulfonyl-aminocarbonyl-18-(7-methoxy-2-phenylquinolin-4-yloxy)-2,15-dioxo-3,16-diazatricyclo[14.3.0.0^4,6]nonadec-14-yl]carbamic acid tetrahydro[4H]pyran-4-yl ester] | < 50 | < 50
COc1ccc2c(O[C@@H]3C[C@H]4C(=O)N[C@]5(C(=O)NS(=O)(=O)C6CC6)C[C@H]5CCCCCCC[C@H](NC(=O)OCC(C)(C)C)C(=O)N4C3)cc(-c3ccccc3)nc2c1 [Compound 22, (1S,4R,6R,14S,18R)-[4-Cyclopropanesulfonylaminocarbonyl-18-(7-methoxy-2-phenylquinolin-4-yloxy)-2,15-dioxo-3,16-diazatricyclo[14.3.0.0^4,6]-nonadec-14-yl]carbamic acid 2,2-dimethylpropyl ester] | < 50 | < 50
CC(C)(C)OC(=O)N[C@H]1CCCCC/C=C\[C@@H]2C[C@@]2(C(=O)NS(C)(=O)=O)NC(=O)[C@@H]2C[C@@H](Oc3ccnc4ccccc34)CN2C1=O [Compound 30, (1S,4R,6S,14S,18R)-7-cis-[4-Methanesulfonylaminocarbonyl-2,15-dioxo-18-(quinolin-4-yloxy)-3,16-diazatricyclo[14.3.0.0^4,6]nonadec-7-en-14-yl]-carbamic acid tert-butyl ester] | < 50 | < 5000
COc1ccc2c(O[C@@H]3C[C@H]4C(=O)N[C@]5(C(=O)NS(=O)(=O)C6CC6)CC5CCCCCC[C@H](NC(=O)O[C@H]5CCOC5)C(=O)N4C3)cc(-c3ccccc3)nc2c1 (stereo partly drawn) [Compound 26, (1S,4R,6R,14S,17R,3′S)-[4-Cyclopropanesulfonyl-aminocarbonyl-17-(7-methoxy-2-phenylquinolin-4-yloxy)-2,14-dioxo-3,15-diazatricyclo[13.3.0.0^4,6]-octadec-13-yl]-carbamic acid tetrahydrofuran-3′-yl ester] | < 50 | < 50
